Our source for the SI, EC50 and Survival % values is patent publication US20210130411A1, “CYCLIC HEXAPEPTIDES COMPOUNDS WITH ANTI-MALARIAL ACTIVITY” (priority 2018, published 2021).

Where a SMILES comes first, the peptide text is derived from it. [ ]: non-standard residue; d: D form. The star is where a group is joined. Trt = c1ccc(C(c2ccccc2)(c2ccccc2)*)cc1; Sar = CNCC(=O)O; tBu = CC(C)(C)*

Experiment [1] concerns murine macrophages or HepG2 cells. Nature of the experiment: Selectivity index: EC50 against murine macrophages or HepG2 cells over EC50 against P. falciparum. In kind it is cell-based. The following applies: ratio of EC50 against murine macrophages or HepG2 cells to EC50 against P. falciparum. The method, then: (§1) were tested in vitro against the intraerythrocytic form of the parasite Plasmodium falciparum K1 (chloroquine-resistant strain) and Plasmodium falciparum 31D7 (chloroquine-sensitive strain). The selectivity index (SI) was determined as the ration between EC50 against murine macrophages or HepG2 cells and the EC50 against P. falciparum. In the following Table 1 is shown the results of the EC50 obtained for each of the tested compounds against P. falciparum K1 (P. f. K1) and P. falciparum 3D7 (P. f. 3D7) and the SI calculated.

For experiment [2], the system named is Plasmodium falciparum 3D7 (chloroquine-sensitive strain). Nature of the experiment: microbe, parasite or virus in culture. In kind it is cell-based. The following applies: intraerythrocytic form, chloroquine-sensitive strain; read-out: EC50 P. f. 3D7. The method, then: For the in vitro study of the antimalarial activity against P. falciparum D7, two stock solutions were prepared: solution A (dilution of powder sample) at 20 mM and solution B at 1 mM (made by dilution of solution A). Next, the compounds were diluted 100-fold (drug solution=10 μM), then, suitable volume of drug solution was transferred in the SYBR GREEN assay plate (final concentration=10-0.15 μM). However, due to the high potency of the samples, the initial concentration was reduced in order to determine the EC50 values. The assay condition included: hematocrit at 2%, initial parasitemia 0.5% and artesunate and pyrimethamine were used as positive control. The fluorescence of each well is measured. The EC50 value of each compound was assessed in at least two independent experiments.
as §1

The test system of experiment [3] is P. falciparum K1 (chloroquine-resistant strain). Nature of the experiment: microbe, parasite or virus in culture. The following applies: read-out: EC50 P. f. K1; intraerythrocytic form, chloroquine-resistant strain. The method, then:
For the in vitro study of the antimalarial activity against P. falciparum K1, this strain originating from Thailand that is resistant to chloroquine and pyrimethamine but sensitive to mefloquine was used. The cultures are naturally asynchronous (65-75% ring stage) and are maintained in continuous log phase growth in RPM11640 medium supplemented with 5% washed human A+erythrocytes, 25 mM HEPES, […] NaHCO3, and AlbuMAXII (lipid-rich bovine serum albumin) (GIBCO, Grand Island, N.Y.) (CM). All cultures and assays are conducted at 37° C. under an atmosphere of 5% CO2 and 5% 02, with a balance of N2.
For drug sensitivity assays, tock drug solutions are prepared in 100% DMSO (dimethylsulfoxide) at 20 mM. The compound is further diluted to the appropriate concentration using complete medium RPM11640 supplemented with 15 nM cold hypoxanthine and AlbuMAXII. Assays are performed in sterile 96-well microtitre plates, each plate contains […] of parasite culture (0.5% parasitemia, 2.5% hematocrit). Each drug is tested in triplicate and parasite growth is compared to control and blank (uninfected erythrocytes) wells. After 24 h of incubation at 37° C., 3.7 Bq of [3H]hypoxanthine is added to each well. Cultures are incubated for a further 24 h before they are harvested onto glass-fiber filter mats. The radioactivity is counted using a Wallac Microbeta 1450 scintillation counter. […] The percentage inhibition is calculated from comparison of blank and control wells, and EC50 values are calculated using Prism™. Screen. The K1 line is used. The compound is diluted threefold over 12 different concentrations with an appropriate starting concentration. The EC50 is determined by a sigmoidal dose-response analysis using Prism™. For each assay, the EC50 value for the parasite line is determined against the known antimalarials chloroquine and artesunate, plus other standard compounds appropriate for the assay.
were tested in vitro against the intraerythrocytic form of the parasite Plasmodium falciparum K1 (chloroquine-resistant strain) and Plasmodium falciparum 31D7 (chloroquine-sensitive strain). The selectivity index (SI) was determined as the ration between EC50 against murine macrophages or HepG2 cells and the EC50 against P. falciparum.

The subject of the next experiment is P. falciparum 3D7 strain. Nature of the experiment: Killing rates assay, P. falciparum 3D7 intraerythrocytic form. Format: cell-based, Plasmodium falciparum. The method, then: The assay was performed in P. falciparum 3D7 strain in its intraerythrocytic form. […] Each compound was renewed (washing the parasites and adding culture media and the compound again) after the first 24 hours of treatment.

The next experiment deals with P. b. (liver st). Nature of the experiment: Biological activity in vitro against the hepatic form of the parasite. In kind it is cell-based, P. berghei.

Usually EC50 stands for the concentration at which the effect is half-maximal. As to `C[C@@H](OC(C)(C)C)[C@@H]1NC(=O)CN(C)C(=O)[C@H](CSC(c2ccccc2)(c2ccccc2)c2ccccc2)NC(=O)CN(C)C(=O)[C@H](CSC(c2ccccc2)(c2ccccc2)c2ccccc2)NC(=O)CN(C)C1=O` [SP79, Cycle-NMe-Gly-L-Thr(^t-Bu)-NMe-Gly-L-Cys(Trt)-NMe-Gly-L-Cys(Trt)] (cyclo(C(Trt)[Sar]C(Trt)[Sar]T(tBu)[Sar])), the SI in experiment [1] is on record as over 140000. Moreover, the figures for the half-maximal effective concentration (EC50) (in experiment [2]; in experiment [3]; with P. b. (liver st)) were 1 nM, 0.7 nM and 18.6 nM, respectively. Also, the Survival % with P. falciparum 3D7 strain (0 hrs of treatment, compound at 10×EC50) was 100%; in the experiment on P. falciparum 3D7 strain (24 hrs of treatment, compound at 10×EC50 (CF89 500 nM, SP79 30 nM)), 83.74%; in the experiment with P. falciparum 3D7 strain (48 hrs of treatment, compound renewed after 24 hrs, 10×EC50), 57.48%.
